Here are results for two molecules from patent publication US20240287062A1, “NAPHTHYRIDONE COMPOUNDS FOR INHIBITION OF RAF KINASES AND/OR BCR-ABL TYROSINE KINASES” (Enliven Inc., priority 2021, published 2024).

What all share (assay type): biochemical
Common to all, as to conditions: compound at 100 nM concentration

One experiment has as its target PDGFRα (Homo sapiens (Human), UniProt P16234). Description: Luminescence-based PDGFRα kinase assay (Km ATP), ADP-Glo. Here is the method: Kinase activity of PDGFRα was measured using the ADP-Glo system (Promega). Compounds were diluted in DMSO at 100 μM. 20 nL of compound or DMSO only (high control, HC) were added to a 384-well plate (OptiPlate-384, PerkinElmer) using an Echo550 liquid handler (Labcyte). 15 μL of kinase solution (10 mM MgCl2, 0.01% Brij-35, 2 mM DTT, 0.05% BSA, 1 mM EGTA, 50 mM HEPES pH 7.5, and 13.3 nM PDGFRα [Carna Biosciences]) were added to each well of the 384-well plate containing the compounds. No enzyme control wells were included (low control, LC). The plate was incubated at room temperature for 30 minutes. 5 μL of a second solution containing 10 mM MgCl2, 0.01% Brij-35, 2 mM DTT, 0.05% BSA, 1 mM EGTA, 50 mM HEPES pH 7.5, 0.8 μg/ml Poly(Glu-Tyr) (Sigma, Cat No 97105-00-5), and 120 μM ATP were added to each well to start the kinase reaction. The plate was incubated for 90 minutes at room temperature. 20 μL of ADP-Glo reagent (Promega) were then added to each well and the plate was incubated for 40 minutes at room temperature. […] During this step, ADP was converted to ATP, a substrate for luciferase, to produce luminescence signal. Luminescence was measured on an Envision plate reader (Perkin Elmer). Luminescence signal positively correlates with kinase activity. The percent inhibition of kinase activity was calculated as follows: percent inhibition=100×(LumHC−LumSample)/(LumHC−LumLC). […]
For orientation: ADP-Glo turns the ADP formed in a reaction into a luminescent signal.

For another experiment, the target named is KDR (VEGFR2) (Homo sapiens (Human), UniProt P35968). Description: Luminescence-based KDR kinase assay (Km ATP), ADP-Glo. The protocol:
(§1) Kinase activity of KDR was measured using the ADP-Glo system (Promega). Compounds were diluted in DMSO at 100 μM. 20 nL of compound or DMSO only (high control, HC) were added to a 384-well plate (OptiPlate-384, PerkinElmer) using an Echo550 liquid handler (Labcyte). 15 μL of kinase solution (10 mM MgCl2, 0.01% Brij-35, 2 mM DTT, 0.05% BSA, 1 mM EGTA, 0.05% CHAPSO, 50 mM HEPES pH 7.5, and 0.665 nM KDR [Carna Biosciences]) were added to each well of the 384-well plate containing the compounds. No enzyme control wells were included (low control, LC). The plate was incubated at room temperature for 30 minutes. 5 μL of a second solution containing 10 mM MgCl2, 0.01% Brij-35, 2 mM DTT, 0.05% BSA, 1 mM EGTA, 50 mM HEPES pH 7.5, 6 μM Peptide 22 (Perkin Elmer, Cat No 760366), and 400 μM ATP were added to each well to start the kinase reaction. The plate was incubated for 90 minutes at room temperature. 20 μL of ADP-Glo reagent (Promega) were then added to each well and the plate was incubated for 40 minutes at room temperature. […] During this step, ADP was converted to ATP, a substrate for luciferase, to produce luminescence signal. Luminescence was measured on an Envision plate reader (Perkin Elmer). Luminescence signal positively correlates with kinase activity. The percent inhibition of kinase activity was calculated as follows: percent inhibition=100×(LumHC−LumSample)/(LumHC−LumLC). […]

Another experiment addresses SRC (Homo sapiens (Human), UniProt P12931). Description: Luminescence-based SRC kinase assay (Km ATP), ADP-Glo. The protocol:
as §1, with “SRC” for “KDR”, “EGTA,” for “EGTA, 0.05% CHAPSO,”, “0.532” for “0.665”, “4” for “22”, “760348),” for “760366),”, “200” for “400”

SRC, sequence (P12931 whole entry): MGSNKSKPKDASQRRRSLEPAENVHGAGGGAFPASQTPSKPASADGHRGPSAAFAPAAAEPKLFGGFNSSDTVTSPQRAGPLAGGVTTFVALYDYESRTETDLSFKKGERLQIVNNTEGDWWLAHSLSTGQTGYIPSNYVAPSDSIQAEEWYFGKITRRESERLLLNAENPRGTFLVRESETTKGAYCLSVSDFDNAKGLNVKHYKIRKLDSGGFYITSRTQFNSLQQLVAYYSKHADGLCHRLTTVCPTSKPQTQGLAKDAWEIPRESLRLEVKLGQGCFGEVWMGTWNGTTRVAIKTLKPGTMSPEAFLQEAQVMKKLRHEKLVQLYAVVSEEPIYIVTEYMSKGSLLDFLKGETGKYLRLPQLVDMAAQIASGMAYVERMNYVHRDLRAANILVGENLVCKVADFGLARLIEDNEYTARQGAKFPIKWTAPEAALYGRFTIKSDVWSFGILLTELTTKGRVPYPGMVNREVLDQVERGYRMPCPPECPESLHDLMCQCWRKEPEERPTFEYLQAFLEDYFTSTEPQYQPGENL
KDR (VEGFR2), sequence (P35968 20-1356): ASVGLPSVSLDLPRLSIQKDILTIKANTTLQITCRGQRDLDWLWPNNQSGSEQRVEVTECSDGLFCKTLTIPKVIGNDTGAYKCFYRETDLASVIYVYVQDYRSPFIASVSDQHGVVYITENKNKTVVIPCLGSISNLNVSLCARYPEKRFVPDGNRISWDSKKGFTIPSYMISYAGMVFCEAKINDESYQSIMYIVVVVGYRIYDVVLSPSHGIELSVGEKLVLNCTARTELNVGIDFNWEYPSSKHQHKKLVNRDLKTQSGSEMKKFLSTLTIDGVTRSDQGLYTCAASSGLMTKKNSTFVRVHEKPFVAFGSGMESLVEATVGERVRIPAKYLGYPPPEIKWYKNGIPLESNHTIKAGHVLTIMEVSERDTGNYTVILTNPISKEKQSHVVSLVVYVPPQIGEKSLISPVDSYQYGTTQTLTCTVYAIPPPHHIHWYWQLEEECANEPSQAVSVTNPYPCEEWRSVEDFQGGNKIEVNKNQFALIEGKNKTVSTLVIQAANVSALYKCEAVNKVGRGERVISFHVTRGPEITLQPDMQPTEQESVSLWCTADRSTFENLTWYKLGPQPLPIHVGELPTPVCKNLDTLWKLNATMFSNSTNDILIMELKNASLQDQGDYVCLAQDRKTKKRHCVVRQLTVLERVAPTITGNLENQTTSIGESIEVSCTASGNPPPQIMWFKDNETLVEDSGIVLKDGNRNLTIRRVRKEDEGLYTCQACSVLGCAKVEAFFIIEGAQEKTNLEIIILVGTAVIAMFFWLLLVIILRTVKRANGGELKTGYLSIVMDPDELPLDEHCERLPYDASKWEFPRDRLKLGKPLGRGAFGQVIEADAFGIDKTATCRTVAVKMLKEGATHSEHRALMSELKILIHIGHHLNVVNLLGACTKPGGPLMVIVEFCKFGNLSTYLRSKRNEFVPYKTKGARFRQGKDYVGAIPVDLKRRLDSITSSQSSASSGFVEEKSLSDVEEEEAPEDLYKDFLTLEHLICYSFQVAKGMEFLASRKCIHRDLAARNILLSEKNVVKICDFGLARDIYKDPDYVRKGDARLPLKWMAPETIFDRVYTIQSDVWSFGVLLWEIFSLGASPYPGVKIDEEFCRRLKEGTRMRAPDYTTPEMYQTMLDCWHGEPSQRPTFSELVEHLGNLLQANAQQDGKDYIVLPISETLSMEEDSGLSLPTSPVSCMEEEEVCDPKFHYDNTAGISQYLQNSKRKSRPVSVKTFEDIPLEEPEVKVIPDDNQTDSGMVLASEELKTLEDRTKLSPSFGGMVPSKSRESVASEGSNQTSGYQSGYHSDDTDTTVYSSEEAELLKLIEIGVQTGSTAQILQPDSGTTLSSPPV
PDGFRα, sequence (P16234 24-1089): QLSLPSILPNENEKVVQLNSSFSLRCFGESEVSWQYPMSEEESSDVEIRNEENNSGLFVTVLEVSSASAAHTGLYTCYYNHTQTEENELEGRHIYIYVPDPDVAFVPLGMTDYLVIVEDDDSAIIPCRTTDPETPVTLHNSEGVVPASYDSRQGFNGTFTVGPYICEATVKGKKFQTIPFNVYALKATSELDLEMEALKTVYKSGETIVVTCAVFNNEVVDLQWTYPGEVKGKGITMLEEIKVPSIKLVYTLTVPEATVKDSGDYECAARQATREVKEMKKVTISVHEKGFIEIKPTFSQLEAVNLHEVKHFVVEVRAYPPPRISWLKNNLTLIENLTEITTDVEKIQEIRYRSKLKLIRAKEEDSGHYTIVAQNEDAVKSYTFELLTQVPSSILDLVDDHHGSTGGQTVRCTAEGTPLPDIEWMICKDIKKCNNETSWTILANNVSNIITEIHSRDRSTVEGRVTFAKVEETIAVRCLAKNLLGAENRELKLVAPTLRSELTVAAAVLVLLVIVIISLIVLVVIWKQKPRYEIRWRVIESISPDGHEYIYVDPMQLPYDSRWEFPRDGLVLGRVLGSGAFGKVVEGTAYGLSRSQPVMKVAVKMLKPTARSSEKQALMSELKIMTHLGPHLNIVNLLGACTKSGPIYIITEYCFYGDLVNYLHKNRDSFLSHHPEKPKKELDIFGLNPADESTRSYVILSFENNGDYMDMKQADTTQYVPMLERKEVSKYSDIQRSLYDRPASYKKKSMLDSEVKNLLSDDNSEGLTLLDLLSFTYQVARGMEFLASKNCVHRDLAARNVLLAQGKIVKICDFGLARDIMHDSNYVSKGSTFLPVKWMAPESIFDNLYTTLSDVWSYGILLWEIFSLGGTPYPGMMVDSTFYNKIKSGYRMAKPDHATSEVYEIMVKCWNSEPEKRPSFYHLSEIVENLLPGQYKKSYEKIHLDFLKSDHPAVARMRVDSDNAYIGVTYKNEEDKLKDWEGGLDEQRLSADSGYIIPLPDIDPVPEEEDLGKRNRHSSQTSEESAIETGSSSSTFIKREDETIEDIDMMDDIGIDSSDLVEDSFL

The term inhibition denotes the drop in the measured response relative to a control, in per cent. For `Cc1c(F)cncc1-c1cc2cnc(NC(=O)C3CC3)cc2n(C)c1=O` [Compound 2, N-[3-(5-fluoro-4-methylpyridin-3-yl)-1-methyl-2-oxo-1,6-naphthyridin-7-yl]cyclopropanecarboxamide], the inhibition at 0.1 µM against PDGFRα is 33%; on KDR (VEGFR2), 32%; against SRC, 77%.

For the molecule `Cc1c(F)cncc1-c1cc2cnc(NC(=O)[C@@H]3C[C@@H]3F)cc2n(C)c1=O` [Compound 28, (1S,2S)-2-fluoro-N-[3-(5-fluoro-4-methylpyridin-3-yl)-1-methyl-2-oxo-1,6-naphthyridin-7-yl]cyclopropane-1-carboxamide], the inhibition at 0.1 µM on PDGFRα worked out at 15%; at KDR (VEGFR2) it was 27%; against SRC, 48%.
